Measurements published in patent US7410975B2, “Small molecule toll-like receptor (TLR) antagonists” (Coley Pharmaceutical Group, Inc., priority 2003, dated 2008).

Biological target: T1, human TLR8 (hTLR8) (Homo sapiens, UniProt Q9NR97)
T1 construct: expressed in transfected cells
T1 sequence (Q9NR97 27-1041): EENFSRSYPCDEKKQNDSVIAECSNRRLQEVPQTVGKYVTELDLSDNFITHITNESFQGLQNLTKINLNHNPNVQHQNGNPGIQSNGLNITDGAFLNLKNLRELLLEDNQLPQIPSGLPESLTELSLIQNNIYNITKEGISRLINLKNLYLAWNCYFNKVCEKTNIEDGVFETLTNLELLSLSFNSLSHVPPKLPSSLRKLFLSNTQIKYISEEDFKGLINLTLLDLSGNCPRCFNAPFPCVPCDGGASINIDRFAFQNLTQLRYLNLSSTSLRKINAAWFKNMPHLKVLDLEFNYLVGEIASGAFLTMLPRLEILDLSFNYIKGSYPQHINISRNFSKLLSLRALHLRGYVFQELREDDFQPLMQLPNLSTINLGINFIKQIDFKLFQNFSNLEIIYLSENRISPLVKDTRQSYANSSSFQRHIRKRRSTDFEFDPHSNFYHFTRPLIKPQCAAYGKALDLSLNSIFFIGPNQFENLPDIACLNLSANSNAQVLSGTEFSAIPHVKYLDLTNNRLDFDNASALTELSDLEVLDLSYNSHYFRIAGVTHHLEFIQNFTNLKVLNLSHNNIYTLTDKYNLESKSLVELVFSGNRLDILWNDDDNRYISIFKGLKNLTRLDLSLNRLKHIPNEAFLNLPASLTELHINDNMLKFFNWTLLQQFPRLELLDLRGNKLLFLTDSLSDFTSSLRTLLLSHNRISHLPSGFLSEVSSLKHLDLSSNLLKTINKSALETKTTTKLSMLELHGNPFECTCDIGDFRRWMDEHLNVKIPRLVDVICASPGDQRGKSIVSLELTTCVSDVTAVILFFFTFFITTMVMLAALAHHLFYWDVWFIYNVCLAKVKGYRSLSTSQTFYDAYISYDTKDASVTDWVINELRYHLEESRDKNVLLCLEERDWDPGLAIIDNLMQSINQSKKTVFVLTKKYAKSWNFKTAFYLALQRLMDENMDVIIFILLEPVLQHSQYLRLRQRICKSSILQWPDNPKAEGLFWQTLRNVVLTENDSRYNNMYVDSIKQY
Assay: Antagonist screen, hTLR8-NFκB-293 cells, NF-κB-luciferase reporter, with EC50 of R848
Type: cell-based
Settings: compound at 0.5, 5, 50 μg/ml; EC50 concentration of R848; 16 h; NF-κB-luciferase

Row | Molecule | hTLR8 (inhibitory effect, antagonist score)
1 | O=C1c2ccccc2C(=O)c2c1ccc1c(=O)n(C3CCCCC3)[nH]c21 [compound 1015] | 11 (compounds for which there was clear down regulation only at 50 μg/ml)
2 | O=C(O)c1cc(C(c2ccc(O)c(C(=O)O)c2)C(Cl)(Cl)Cl)ccc1O [compound 884] | 11 (compounds for which there was clear down regulation only at 50 μg/ml)
3 | Metixene hydrochloride [compound 491] | 11 (compounds for which there was clear down regulation only at 50 μg/ml)
4 | CC[C@]12CCCN3CCc4c(n(c5ccccc45)C(=O)C1)[C@@H]32 [compound 607, Eburnamonine] | — (compounds for which there was no clear down regulation even at 50 μg/ml)
5 | NC(=O)c1cccc2c1-c1ccccc1C2 [compound 1132] | 11 (compounds for which there was clear down regulation only at 50 μg/ml)
6 | Cl.Cl.c1ccc2c3c([nH]c2c1)C1C2CCC(C4CCCNC42)N1CC3 (stereo not drawn) [compound 685, Nitrarine dihydorchloride] | — (compounds for which there was no clear down regulation even at 50 μg/ml)
7 | CN(C)CC/C=C1/c2ccccc2CSc2ccccc21.Cl [compound 488, Dosulepin hydrochloride] | — (compounds for which there was no clear down regulation even at 50 μg/ml)
8 | Cc1cccc(CN2CCN(C(c3ccccc3)c3ccc(Cl)cc3)CC2)c1.Cl.Cl (stereo not drawn) [compound 457, Meclozinedihydrochioride] | — (compounds for which there was no clear down regulation even at 50 μg/ml)
9 | CNCCCN1c2ccccc2CCc2ccccc21.Cl [compound 343, Desipraminehydrochloride] | 11 (compounds for which there was clear down regulation only at 50 μg/ml)
10 | O=C(O)c1ccc(C2(c3ccc(C(=O)O)cc3)OC(=O)c3ccccc32)cc1 [compound 970] | — (compounds for which there was no clear down regulation even at 50 μg/ml)
11 | C=CCc1ccccc1OC1(c2ccccc2)OC(=O)c2ccccc21 (stereo not drawn) [compound 957] | — (compounds for which there was no clear down regulation even at 50 μg/ml)
12 | CN1CCC(OC(c2ccccc2)c2ccccc2)CC1.Cl [compound 707, Diphenylpyralinehydrochloride] | — (compounds for which there was no clear down regulation even at 50 μg/ml)
